ChEMBL document CHEMBL1146181, “7'-substituted benzothiazolothio- and pyridinothiazolothio-purines as potent heat shock protein 90 inhibitors” (J Med Chem, 2006)
In brackets after ≈: the same amount, converted by molar mass.

Key:
Heat shock protein HSP90 [1] = molecular target: T1, Heat shock protein HSP90 (Homo sapiens, UniProt P07900+P08238); test: Ability to degrade Her2 in MCF7 cells; format: functional, cell-based
MCF7 = test: Viability of MCF7 cells by MTS assay; format: functional, cell-based; settings: Homo sapiens
[2] = Solubility in simulated gastric fluid at pH 2.0; format: physicochemical
[3] = Solubility in simulated intestinal fluid at pH 6.5; format: physicochemical
[4] = Solubility in Balb/C mouse serum at pH 7.4; format: ADME, cell-free
Heat shock protein HSP90 [5] = molecular target: T1, Heat shock protein HSP90; settings: mcf7
Description: Binding affinity to Hsp90 in MCF7 cell lysate

Mus musculus = test: AUC in Balb/C mouse at 100 mg/kg, po; format: ADME, organism-based, Plasma; parameters: dose 100 mg/kg, route oral; settings: in vivo
NCI-N87 = test: Inhibition of N87 cell line xenografted in mouse at 200 mg/kg, po; format: functional, Homo sapiens; settings: read-out: TGI
[6] = Cmax in Balb/C mouse at 100 mg/kg, po; format: ADME, organism-based; parameters: dose 100 mg/kg, route oral; settings: in vivo

Compound: Nc1ncnc2c1nc(Sc1nc3cccc(Cl)c3s1)n2CCCCO
- IC50 (Heat shock protein HSP90 [1]): 150 nM
- EC50 (MCF7): 200 nM

Compound: Nc1ncnc2c1nc(Sc1nc3cccc(Cl)c3s1)n2CCCO
- IC50 (Heat shock protein HSP90 [1]): 150 nM
- EC50 (MCF7): 250 nM

Compound: CCOP(=O)(CCn1c(Sc2nc3cccc(Cl)c3s2)nc2c(N)ncnc21)OCC
- solubility [2]: 98.5 µg/mL (≈ 197 µM)

Compound: CCCCn1c(Sc2nc3cccc(OC)c3s2)nc2c(N)ncnc21
- IC50 (Heat shock protein HSP90 [1]): 190 nM
- EC50 (MCF7): 230 nM
- solubility [2]: 35 µg/mL (≈ 90.6 µM)
- solubility [3]: 2 µg/mL (≈ 5.17 µM)
- solubility [4]: 18 µg/mL (≈ 46.6 µM)
- EC50 (Heat shock protein HSP90 [5]): 200 nM

Compound: CC(C)(C)CNCCn1c(Sc2nc3cccc(Cl)c3s2)nc2c(N)ncnc21
- IC50 (Heat shock protein HSP90 [1]): 35 nM
- EC50 (MCF7): 30 nM
- solubility [4]: 4.9 µg/mL (≈ 10.9 µM)

Compound: CC(=O)OCCCCn1c(Sc2nc3cccc(Cl)c3s2)nc2c(N)ncnc21
- IC50 (Heat shock protein HSP90 [1]): 130 nM
- EC50 (MCF7): 240 nM
- solubility [2]: 46 µg/mL (≈ 102 µM)
- solubility [3]: 3 µg/mL (≈ 6.68 µM)
- EC50 (Heat shock protein HSP90 [5]): 140 nM

Compound: CCCCn1c(Sc2nc3cccc(C)c3s2)nc2c(N)ncnc21
- IC50 (Heat shock protein HSP90 [1]): 300 nM
- EC50 (MCF7): 1300 nM

Compound: Nc1ncnc2c1nc(Sc1nc3cccc(Cl)c3s1)n2CCO
- IC50 (Heat shock protein HSP90 [1]): 300 nM
- EC50 (MCF7): 700 nM

Compound: CCCCn1c(Sc2nc3cncc(Cl)c3s2)nc2c(N)ncnc21
- IC50 (Heat shock protein HSP90 [1]): 280 nM
- EC50 (MCF7): 1000 nM

Compound: CCCCn1c(Sc2nc3ccccc3s2)nc2c(N)ncnc21
- IC50 (Heat shock protein HSP90 [1]): 5000 nM
- EC50 (MCF7): 10000 nM

Compound: CCOP(=O)(CCn1c(Sc2nc3cncc(Br)c3s2)nc2c(N)ncnc21)OCC
- EC50 (MCF7): 100 nM

Compound: CCCCn1c(Sc2nc3c(Cl)cccc3s2)nc2c(N)ncnc21
- IC50 (Heat shock protein HSP90 [1]): 15000 nM
- EC50 (MCF7): 20000 nM

Compound: CCCCn1c(Sc2nc3ccc(Cl)cc3s2)nc2c(N)ncnc21
- IC50 (Heat shock protein HSP90 [1]): 7000 nM
- EC50 (MCF7): 20000 nM

Compound: CCCCn1c(Sc2nc3cc(Cl)ccc3s2)nc2c(N)ncnc21
- IC50 (Heat shock protein HSP90 [1]): 20000 nM
- EC50 (MCF7): 20000 nM

Compound: CCCn1c(Sc2nc3cccc(Cl)c3s2)nc2c(N)ncnc21
- IC50 (Heat shock protein HSP90 [1]): 250 nM
- EC50 (MCF7): 850 nM

Compound: CC(C)NCCCn1c(Sc2nc3cccc(Cl)c3s2)nc2c(N)ncnc21
- IC50 (Heat shock protein HSP90 [1]): 170 nM
- EC50 (MCF7): 500 nM

Compound: CC(=O)OCCCn1c(Sc2nc3cncc(Cl)c3s2)nc2c(N)ncnc21
- IC50 (Heat shock protein HSP90 [1]): 170 nM
- EC50 (MCF7): 1000 nM

Compound: CCn1c(Sc2nc3cccc(Cl)c3s2)nc2c(N)ncnc21
- IC50 (Heat shock protein HSP90 [1]): 200 nM
- EC50 (MCF7): 800 nM

Compound: CCCCn1c(Sc2nc3cccc(Br)c3s2)nc2c(N)ncnc21
- IC50 (Heat shock protein HSP90 [1]): 330 nM
- EC50 (MCF7): 2000 nM

Compound: CCOP(=O)(CCn1c(Sc2nc3cncc(Cl)c3s2)nc2c(N)ncnc21)OCC
- EC50 (MCF7): 250 nM
- solubility [2]: 124 µg/mL (≈ 248 µM)
- solubility [3]: 38.3 µg/mL (≈ 76.6 µM)
- solubility [4]: 14 µg/mL (≈ 28 µM)

Compound: N#CCCCCn1c(Sc2nc3cccc(Cl)c3s2)nc2c(N)ncnc21
- IC50 (Heat shock protein HSP90 [1]): 110 nM
- EC50 (MCF7): 300 nM
- solubility [2]: 58.7 µg/mL (≈ 141 µM)
- solubility [3]: 4.4 µg/mL (≈ 10.6 µM)
- solubility [4]: 31.3 µg/mL (≈ 75.3 µM)
- EC50 (Heat shock protein HSP90 [5]): 100 nM

Compound: CC(C)(C)NCCn1c(Sc2nc3cccc(Cl)c3s2)nc2c(N)ncnc21
- IC50 (Heat shock protein HSP90 [1]): 140 nM
- EC50 (MCF7): 300 nM

Compound: CC(C)(C)NCCCn1c(Sc2nc3cccc(Cl)c3s2)nc2c(N)ncnc21
- IC50 (Heat shock protein HSP90 [1]): 150 nM
- EC50 (MCF7): 200 nM
- solubility [3]: 138 µg/mL (≈ 307 µM)
- solubility [4]: 199 µg/mL (≈ 444 µM)

Compound: CC(=O)OCCCn1c(Sc2nc3cccc(Cl)c3s2)nc2c(N)ncnc21
- IC50 (Heat shock protein HSP90 [1]): 90 nM
- EC50 (MCF7): 200 nM
- solubility [2]: 220 µg/mL (≈ 506 µM)
- solubility [3]: 16 µg/mL (≈ 36.8 µM)
- AUC (Mus musculus): 1.04 µg·h/mL
- solubility [4]: 9 µg/mL (≈ 20.7 µM)
- EC50 (Heat shock protein HSP90 [5]): 160 nM

Compound: Nc1ncnc2c1nc(Sc1nc3cccc(Cl)c3s1)n2CCN1CCOCC1
- IC50 (Heat shock protein HSP90 [1]): 250 nM
- EC50 (MCF7): 300 nM
- EC50 (Heat shock protein HSP90 [5]): 150 nM

Compound: Nc1ncnc2c1nc(Sc1nc3cccc(Cl)c3s1)n2CCNC1CC1
- IC50 (Heat shock protein HSP90 [1]): 110 nM
- EC50 (MCF7): 300 nM
- solubility [2]: 245 µg/mL (≈ 586 µM)
- solubility [3]: 21 µg/mL (≈ 50.2 µM)
- AUC (Mus musculus): 7.31 µg·h/mL
- solubility [4]: 59 µg/mL (≈ 141 µM)
- inhibition in vivo at 200 mg/kg (NCI-N87): 56%
- Cmax [6]: 4510 ng/mL
- EC50 (Heat shock protein HSP90 [5]): 130 nM

Compound: CCCCCn1c(Sc2nc3cccc(Cl)c3s2)nc2c(N)ncnc21
- IC50 (Heat shock protein HSP90 [1]): 700 nM
- EC50 (MCF7): 6000 nM

Compound: CCCCn1c(Sc2nc3cccc(Cl)c3s2)nc2c(N)ncnc21
- IC50 (Heat shock protein HSP90 [1]): 180 nM
- EC50 (MCF7): 250 nM

Compound: CCCCn1c(Sc2nc3cccc(OCC)c3s2)nc2c(N)ncnc21
- IC50 (Heat shock protein HSP90 [1]): 100000 nM
- EC50 (MCF7): 16000 nM

Compound: CCCCn1c(Sc2nc3cccc(F)c3s2)nc2c(N)ncnc21
- IC50 (Heat shock protein HSP90 [1]): 200 nM
- EC50 (MCF7): 1000 nM

Compound: CCCCn1c(Sc2nc3cncc(Br)c3s2)nc2c(N)ncnc21
- IC50 (Heat shock protein HSP90 [1]): 400 nM
- EC50 (MCF7): 4000 nM

Compound: CCCCn1c(Sc2nc3ccc(Cl)c(Cl)c3s2)nc2c(N)ncnc21
- IC50 (Heat shock protein HSP90 [1]): 25000 nM
- EC50 (MCF7): 20000 nM

Compound: CC(=O)OCCn1c(Sc2nc3cccc(Cl)c3s2)nc2c(N)ncnc21
- IC50 (Heat shock protein HSP90 [1]): 150 nM
- EC50 (MCF7): 300 nM
